Assay results as given in patent US6706740B2, “Fungicidal heterocyclic aromatic amides and their compositions, methods of use and preparation” (Dow AgroSciences LLC, priority 1999, dated 2004).
Read-outs that look alike come from different tables or passages of the source.

How the values were obtained:
[1] = tested on: Magnaporthe grisea (Pyricularia oryzae—PYRIOR); experiment: microbe, parasite or virus in culture; format: cell-based; settings: Pyricularia oryzae, read-out: PYRIOR in vitro Growth Inhibition
[2] = tested on: Puccinia recondita—PUCCRT; experiment: Brown Rust of Wheat, in vivo whole plant, 24 Hour Protectant; settings: Puccinia, control of fungal infection vs untreated plants, read-out: PUCCRT in vivo 1 Day Protectant
[3] = tested on: Stagonospora nodorum (Leptosphaeria nodorum—LEPTNO); experiment: In vitro fungal growth inhibition, Stagonospora nodorum (LEPTNO); format: cell-based; settings: Leptosphaeria, read-out: LEPTNO in vitro Growth Inhibition
Septoria tritici—SEPTTR = experiment: Leaf Blotch of Wheat, in vivo whole plant, 24 Hour Protectant; settings: Zymoseptoria tritici, 24 h, control of fungal infection vs untreated plants, read-out: SEPTTR in vivo 1 Day Protectant
[4] = tested on: Rhizoctonia solani (RHIZSO); experiment: microbe, parasite or virus in culture; format: cell-based; settings: Rhizoctonia solani, read-out: RHIZSO in vitro Growth Inhibition
Erysiphe graminis—ERYSGT = experiment: Powdery Mildew of Wheat, in vivo whole plant, 24 Hour Protectant; settings: Erysiphe, control of fungal infection vs untreated plants, read-out: ERYSGT in vivo 1 Day Protectant
[5] = tested on: Phytophthora infestans (PHYTIN); experiment: microbe, parasite or virus in culture; format: cell-based; settings: Phytophthora infestans, read-out: PHYTIN in vitro Growth Inhibition
[6] = tested on: Leptosphaeria nodorum—LEPTNO; experiment: Glume Blotch of Wheat, in vivo whole plant, 24 Hour Protectant; settings: control of fungal infection vs untreated plants; for pest or weed control at 100 ppm: Leptosphaeria, read-out: LEPTNO in vivo 1 Day Protectant
[7] = tested on: Phytophthora infestans—PHYTIN; experiment: whole plant or invertebrate; format: in vivo; settings: Phytophthora, in Solanum lycopersicum, 24 h, read-out: PHYTIN in vivo 1 Day Protectant
[8] = tested on: Mycosphaerella graminicola (Septoria tritici—SEPTTR); experiment: In vitro fungal growth inhibition, Mycosphaerella graminicola (SEPTTR); format: cell-based; settings: Zymoseptoria tritici, read-out: SEPTTR in vitro Growth Inhibition
Ustilago maydis (USTIMA) = experiment: microbe, parasite or virus in culture; format: cell-based; settings: Mycosarcoma maydis, read-out: USTIMA in vitro Growth Inhibition
[9] = 100 ppm spray, 24 hour protectant, wheat
[10] = 100 ppm spray, wheat, 24 hour protectant
[11] = wheat plants sprayed at 100 ppm, inoculated after 24 hours

## CC(NC(=O)c1ncccc1O)c1ccccc1 (stereo not drawn) [Compound 229]
other
  melting point: 89 to 91 °C
[1]
  inhibition at 25 ppm: > 80%
[2]; [9]
  pest or weed control at 100 ppm: < 25%
[3]; 25 ppm in growth medium
  inhibition at 25 ppm: < 80%
Septoria tritici—SEPTTR; [9]
  pest or weed control at 100 ppm: < 25%
[4]
  inhibition at 25 ppm: < 80%
Erysiphe graminis—ERYSGT; [9]
  pest or weed control at 100 ppm: < 25%
[5]
  inhibition at 25 ppm: < 80%
[6]; [9]
  pest or weed control at 100 ppm: < 25%
[7]
  pest or weed control at 100 ppm: < 25%
[8]; 25 ppm in growth medium
  inhibition at 25 ppm: > 80%
Ustilago maydis (USTIMA)
  inhibition at 25 ppm: < 80%

## O=C(NCc1ccccc1Cl)c1ncccc1O [Compound 218]
other
  melting point: 97 to 99 °C
[1]
  inhibition at 25 ppm: > 80%
[2]; [9]
  pest or weed control at 100 ppm: < 25%
[3]; 25 ppm in growth medium
  inhibition at 25 ppm: > 80%
Septoria tritici—SEPTTR; [9]
  pest or weed control at 100 ppm: < 25%
[4]
  inhibition at 25 ppm: > 80%
Erysiphe graminis—ERYSGT; [9]
  pest or weed control at 100 ppm: < 25%
[5]
  inhibition at 25 ppm: > 80%
[6]; [9]
  pest or weed control at 100 ppm: < 25%
[7]
  pest or weed control at 100 ppm: < 25%
[8]; 25 ppm in growth medium
  inhibition at 25 ppm: < 80%
Ustilago maydis (USTIMA)
  inhibition at 25 ppm: > 80%

## COc1ccnc(C(=O)N[C@H]2COC(=O)[C@H](Cc3ccccc3)[C@@H](OC(=O)C(C)(C)C)[C@H](C)OC2=O)c1O [Compound 388]
other
  melting point: 212 to 214 °C
[1]
  inhibition at 25 ppm: < 80%
[2]; [10]
  pest or weed control at 100 ppm: 25 to 74%
[3]; 25 ppm in growth medium
  inhibition at 25 ppm: > 80%
Septoria tritici—SEPTTR; [10]
  pest or weed control at 100 ppm: 25 to 74%
[4]
  inhibition at 25 ppm: < 80%
Erysiphe graminis—ERYSGT; [10]
  pest or weed control at 100 ppm: < 25%
[5]
  inhibition at 25 ppm: < 80%
[6]; [10]
  LEPTNO in vivo 1 Day Protectant: + +
[7]
  pest or weed control at 100 ppm: < 25%
[8]; 25 ppm in growth medium
  inhibition at 25 ppm: > 80%
Ustilago maydis (USTIMA)
  inhibition at 25 ppm: < 80%

## O=C(NC1CCCCC1)c1cccnc1O [Compound 515]
other
  melting point: 190 to 192 °C
[1]
  inhibition at 25 ppm: < 80%
[2]; [11]
  pest or weed control at 100 ppm: < 25%
[3]; 25 ppm in the growth medium
  inhibition at 25 ppm: < 80%
Septoria tritici—SEPTTR; [11]
  pest or weed control at 100 ppm: 25 to 74%
[4]
  inhibition at 25 ppm: < 80%
Erysiphe graminis—ERYSGT; [11]
  pest or weed control at 100 ppm: < 25%
[5]
  inhibition at 25 ppm: < 80%
[6]; [11]
  pest or weed control at 100 ppm: < 25%
[7]
  pest or weed control at 100 ppm: < 25%
[8]; 25 ppm in the growth medium
  inhibition at 25 ppm: < 80%
Ustilago maydis (USTIMA)
  inhibition at 25 ppm: < 80%

## CC(=O)Oc1cccnc1C(=O)NC1CCC(OC(C)=O)CC1 (stereo not drawn) [Compound 564]
other
  melting point: 158 to 161 °C
[1]
  inhibition at 25 ppm: < 80%
[2]; [11]
  pest or weed control at 100 ppm: < 25%
[3]; 25 ppm in the growth medium
  inhibition at 25 ppm: < 80%
Septoria tritici—SEPTTR; [11]
  pest or weed control at 100 ppm: < 25%
[4]
  inhibition at 25 ppm: < 80%
Erysiphe graminis—ERYSGT; [11]
  pest or weed control at 100 ppm: < 25%
[5]
  inhibition at 25 ppm: < 80%
[6]; [11]
  pest or weed control at 100 ppm: 25 to 74%
[7]
  pest or weed control at 100 ppm: < 25%
[8]; 25 ppm in the growth medium
  inhibition at 25 ppm: < 80%
Ustilago maydis (USTIMA)
  inhibition at 25 ppm: < 80%

## CC(C)C(=O)O[C@H]1[C@H](C)OC(=O)[C@@H](NC(=O)c2nnccc2O)COC(=O)[C@@H]1Cc1ccccc1 [Compound 532]
other
  melting point: 233 °C (dec.)
[1]
  inhibition at 25 ppm: < 80%
[2]; [11]
  pest or weed control at 100 ppm: 25 to 74%
[3]; 25 ppm in the growth medium
  inhibition at 25 ppm: < 80%
Septoria tritici—SEPTTR; [11]
  pest or weed control at 100 ppm: 25 to 74%
[4]
  inhibition at 25 ppm: < 80%
Erysiphe graminis—ERYSGT; [11]
  pest or weed control at 100 ppm: 25 to 74%
[5]
  inhibition at 25 ppm: < 80%
[6]; [11]
  pest or weed control at 100 ppm: 25 to 74%
[7]
  pest or weed control at 100 ppm: 25 to 74%
[8]; 25 ppm in the growth medium
  inhibition at 25 ppm: < 80%
Ustilago maydis (USTIMA)
  inhibition at 25 ppm: < 80%

## COc1ccnc(C(=O)N[C@H]2COC(=O)[C@H](Cc3ccccc3)[C@@H](OC(C)=O)[C@H](C)OC2=O)c1O [Compound 385]
other
  melting point: 194 to 196 °C
[1]
  inhibition at 25 ppm: < 80%
[2]; [10]
  pest or weed control at 100 ppm: 25 to 74%
[3]; 25 ppm in growth medium
  inhibition at 25 ppm: > 80%
Septoria tritici—SEPTTR; [10]
  pest or weed control at 100 ppm: 25 to 74%
[4]
  inhibition at 25 ppm: < 80%
Erysiphe graminis—ERYSGT; [10]
  pest or weed control at 100 ppm: < 25%
[5]
  inhibition at 25 ppm: < 80%
[6]; [10]
  LEPTNO in vivo 1 Day Protectant: + +
[7]
  pest or weed control at 100 ppm: 25 to 74%
[8]; 25 ppm in growth medium
  inhibition at 25 ppm: > 80%
Ustilago maydis (USTIMA)
  inhibition at 25 ppm: < 80%
